Experimental data reported in patent publication US6783966B1 (priority 2000, dated 2004).

Target: T1, α1,4 Gal-T (Homo sapiens, UniProt Q9NPC4)
T1 sequence (Q9NPC4 1-353): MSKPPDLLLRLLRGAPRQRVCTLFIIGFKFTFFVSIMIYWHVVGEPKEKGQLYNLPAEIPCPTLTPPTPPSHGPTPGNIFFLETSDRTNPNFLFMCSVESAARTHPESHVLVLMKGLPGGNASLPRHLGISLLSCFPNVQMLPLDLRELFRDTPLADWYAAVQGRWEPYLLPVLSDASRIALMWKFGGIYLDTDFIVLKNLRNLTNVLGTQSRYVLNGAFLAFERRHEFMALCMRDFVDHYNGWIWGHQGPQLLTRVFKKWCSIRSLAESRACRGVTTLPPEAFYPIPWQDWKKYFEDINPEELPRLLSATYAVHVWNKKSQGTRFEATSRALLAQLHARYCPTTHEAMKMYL
Experiment: Enzyme assay of α1,4 Gal-T in membrane fraction of transfected L cells
Details: for Km: acceptor substrate of α1,4 Gal-T, donor UDP-Gal; for significant levels of [14C] galactose incorporation (acceptor): potential acceptors, FIG. 4B
Procedure: The enzyme activity of α1,4 Gal-T in the membrane fraction was measured as descibed previously(ref.4). The reaction mixture for the assay contained the following in a volume of 50 μl:50 mM sodium cacodylate-HCl (pH 6.0), 10 mM MgCl2, 5 mM galactonolactone (Sigma), 0.3% Triton X-100 (Sigma), 0.4 mM (LacCer), 2.9 mM phosphatidylglycerol (Sigma), 0.2 mM UDP-Gal (Sigma), UDP-[^14C] Gal (2.5×10^5 dpm) (NEN), and membrane fraction containing 50 μg protein. The protein concentration was determined by Lowry's methods(ref.20). The products was isolated by a C18 Sep-Pak cartridge (Waters, Milford, Mass.) and analyzed by thin layer chromatography (TLC) and autoradiography using a Bio-Imaging Analyzer BAS2000 (Fuji Film, Tokyo).
Enzyme activity toward other potential acceptors was also examined (FIG. 4B).

Substance | Km [µM] | significant levels of [14C] galactose incorporation (acceptor)
galactosylceramide | 132 | significant levels
lactosylceramide [LacCer] | 54.5 | significant levels
